Assay results as given in patent US12077503B2, “Substituted cyclic amides and their use as herbicides” (FMC CORPORATION, priority 2015, dated 2024).
Like-named read-outs stand apart in the source and are kept apart here.

Tests used:
Format in all cases: in vivo
Kochia (Kochia scoparia) [1] = test: Test A preemergence; conditions: Bassia scoparia, pre-emergence, 240 h, read-out: Plant response rating, Kochia; for pest or weed control at 125 g/ha: 125 g ai/ha, Preemergence, visual injury after approximately 10 d, 0 to 100 scale where 0 is no effect and 100 is complete control; for pest or weed control at 500 g/ha: 500 g ai/ha, preemergence, 0 to 100 scale, 0 = no effect, 100 = complete control
Procedure, shortened: (§1)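 Visual injury, scored on a 0–100 scale relative to untreated controls, was recorded about 10 d after application. Treatments were a preemergence soil spray over planted seeds or a postemergence spray on plants at the one- to two-leaf stage, 2 to 10 cm tall, all in loam soil–sand blend in the greenhouse.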

[2] = system: giant foxtail (Setaria faberii); test: Test A preemergence; conditions: Setaria faberi, pre-emergence, 240 h, read-out: Plant response rating, Foxtail, Giant; for pest or weed control at 125 g/ha: 125 g ai/ha, Preemergence, visual injury after approximately 10 d, 0 to 100 scale where 0 is no effect and 100 is complete control; for pest or weed control at 500 g/ha: 500 g ai/ha, preemergence, 0 to 100 scale, 0 = no effect, 100 = complete control
Procedure, shortened: as §1

[3] = system: barnyardgrass (Echinochloa crus-galli); test: Test A preemergence; conditions: Echinochloa crus-galli, pre-emergence, 240 h, read-out: Plant response rating, Barnyardgrass; for pest or weed control at 125 g/ha: 125 g ai/ha, Preemergence, visual injury after approximately 10 d, 0 to 100 scale where 0 is no effect and 100 is complete control; for pest or weed control at 500 g/ha: 500 g ai/ha, preemergence, 0 to 100 scale, 0 = no effect, 100 = complete control
Procedure, shortened: as §1

[4] = system: ragweed (common ragweed, Ambrosia elatior); test: Test A preemergence; conditions: Ambrosia artemisiifolia, pre-emergence, 240 h, read-out: Plant response rating, Ragweed; for pest or weed control at 125 g/ha: 125 g ai/ha, Preemergence, visual injury after approximately 10 d, 0 to 100 scale where 0 is no effect and 100 is complete control; for pest or weed control at 500 g/ha: 500 g ai/ha, preemergence, 0 to 100 scale, 0 = no effect, 100 = complete control
Procedure, shortened: as §1

[5] = system: ryegrass, Italian (Italian ryegrass, Lolium multiflorum); test: Test A preemergence; conditions: Lolium multiflorum, pre-emergence, 240 h, read-out: Plant response rating, Ryegrass, Italian; for pest or weed control at 125 g/ha: 125 g ai/ha, Preemergence, visual injury after approximately 10 d, 0 to 100 scale where 0 is no effect and 100 is complete control; for pest or weed control at 500 g/ha: 500 g ai/ha, preemergence, 0 to 100 scale, 0 = no effect, 100 = complete control
Procedure, shortened: as §1

[6] = system: pigweed (Amaranthus retroflexus); test: Test A preemergence; conditions: Amaranthus retroflexus, pre-emergence, 240 h, read-out: Plant response rating, Pigweed; for pest or weed control at 125 g/ha: 125 g ai/ha, Preemergence, visual injury after approximately 10 d, 0 to 100 scale where 0 is no effect and 100 is complete control; for pest or weed control at 500 g/ha: 500 g ai/ha, preemergence, 0 to 100 scale, 0 = no effect, 100 = complete control
Kochia (Kochia scoparia) [7] = test: Test A postemergence; conditions: Bassia scoparia, post-emergence, 240 h, read-out: Plant response rating, Kochia; for pest or weed control at 125 g/ha: 125 g ai/ha, visual rating after approx. 10 d; for pest or weed control at 500 g/ha: 500 g ai/ha
Procedure, shortened: as §1

[8] = system: Galium (catchweed bedstraw, Galium aparine); test: Test A postemergence; conditions: Galium, post-emergence, 240 h, read-out: Plant response rating, Galium; for pest or weed control at 125 g/ha: 125 g ai/ha, visual rating after approx. 10 d; for pest or weed control at 500 g/ha: 500 g ai/ha
Procedure, shortened: as §1

corn (Zea mays) = test: Test A postemergence; conditions: Zea mays, post-emergence, 240 h; for Corn plant response rating (crop injury, 0 = no effect, 100 = complete kill) at 125 g/ha: 125 g ai/ha, postemergence, visual rating after approx. 10 d, 0 to 100 scale (0 no effect, 100 complete control); for Corn plant response rating (crop injury, 0 = no effect, 100 = complete kill) at 500 g/ha: Postemergence, 500 g ai/ha, 0 to 100 scale where 0 is no effect and 100 is complete control
Procedure, shortened: as §1

[9] = system: giant foxtail (Setaria faberii); test: Test A postemergence; conditions: Setaria faberi, post-emergence, 240 h, read-out: Plant response rating, Foxtail, Giant; for pest or weed control at 125 g/ha: 125 g ai/ha, visual rating after approx. 10 d; for pest or weed control at 500 g/ha: 500 g ai/ha
Procedure, shortened: as §1

[10] = system: barnyardgrass (Echinochloa crus-galli); test: Test A postemergence; conditions: Echinochloa crus-galli, post-emergence, 240 h, read-out: Plant response rating, Barnyardgrass; for pest or weed control at 125 g/ha: 125 g ai/ha, postemergence, visual rating after approx. 10 d, 0 to 100 scale (0 no effect, 100 complete control); for pest or weed control at 500 g/ha: Postemergence, 500 g ai/ha, 0 to 100 scale where 0 is no effect and 100 is complete control
Procedure, shortened: as §1

[11] = system: blackgrass (Alopecurus myosuroides); test: Test A postemergence; conditions: Alopecurus myosuroides, post-emergence, 240 h, read-out: Plant response rating, Blackgrass; for pest or weed control at 125 g/ha: 125 g ai/ha, postemergence, visual rating after approx. 10 d, 0 to 100 scale (0 no effect, 100 complete control); for pest or weed control at 500 g/ha: Postemergence, 500 g ai/ha, 0 to 100 scale where 0 is no effect and 100 is complete control
Procedure, shortened: as §1

[12] = system: wheat (Triticum aestivum); test: Test A postemergence; conditions: Triticum aestivum, post-emergence, 240 h, read-out: Plant response rating, Wheat; for plant injury at 125 g/ha: 125 g ai/ha, visual rating after approx. 10 d; for plant injury at 500 g/ha: 500 g ai/ha
Procedure, shortened: as §1

[13] = system: ryegrass, Italian (Italian ryegrass, Lolium multiflorum); test: Test A postemergence; conditions: Lolium multiflorum, post-emergence, 240 h, read-out: Plant response rating, Ryegrass, Italian; for pest or weed control at 125 g/ha: 125 g ai/ha, visual rating after approx. 10 d; for pest or weed control at 500 g/ha: 500 g ai/ha
Procedure, shortened: as §1

[14] = system: pigweed (Amaranthus retroflexus); test: Test A postemergence; conditions: Amaranthus retroflexus, post-emergence, 240 h, read-out: Plant response rating, Pigweed; for pest or weed control at 125 g/ha: 125 g ai/ha, visual rating after approx. 10 d; for pest or weed control at 500 g/ha: 500 g ai/ha
Procedure, shortened: as §1

[15] = postemergence, 0 to 100 scale (0 no effect, 100 complete control)
[16] = Postemergence, 0 to 100 scale where 0 is no effect and 100 is complete control
[17] = postemergence, visual injury, 0 to 100 scale (0 no effect, 100 complete control), approx. 10 d

In the case of `CN1C[C@H](c2ccc(C(F)(F)F)cc2)[C@@H](C(=O)Nc2ccccc2F)C1=O` [Compound 622, (3S,4S)—N-(2-fluorophenyl)-1-methyl-2-oxo-4-[4-(trifluoromethyl)phenyl]-3-pyrrolidinecarboxamide], the pest or weed control at 125 g/ha (Kochia (Kochia scoparia) [1]) is reported as 80%, the pest or weed control at 500 g/ha (Kochia (Kochia scoparia) [1]) is reported as 80% and the pest or weed control at 125 g/ha [2] is reported as 90%. It also gave a pest or weed control at 500 g/ha [2] of 90%, a pest or weed control at 125 g/ha [3] of 90% and a pest or weed control at 500 g/ha [3] of 90%. It also gave a pest or weed control at 125 g/ha [4] of 60%, a pest or weed control at 500 g/ha [4] of 60% and a pest or weed control at 125 g/ha [5] of 40%. The pest or weed control at 500 g/ha [5] was 40%, the pest or weed control at 125 g/ha [6] was 80% and the pest or weed control at 500 g/ha [6] was 80%. It also gave a pest or weed control at 125 g/ha (Kochia (Kochia scoparia) [7]; [15]) of 40%, a pest or weed control at 500 g/ha (Kochia (Kochia scoparia) [7]; [16]) of 60% and a pest or weed control at 125 g/ha [8, 15] of 60%. It also gave a pest or weed control at 500 g/ha [8, 16] of 70%, a Corn plant response rating (crop injury, 0 = no effect, 100 = complete kill) at 125 g/ha (corn (Zea mays)) of 50% and a Corn plant response rating (crop injury, 0 = no effect, 100 = complete kill) at 500 g/ha (corn (Zea mays)) of 70%. It also gave a pest or weed control at 125 g/ha [9, 15] of 80%, a pest or weed control at 500 g/ha [9, 16] of 90% and a pest or weed control at 125 g/ha [10] of 90%. For the same compound, the pest or weed control at 500 g/ha [10] was 90%, the pest or weed control at 125 g/ha [11] was 30% and the pest or weed control at 500 g/ha [11] was 60%. The plant injury at 125 g/ha [12, 15] was 30%, the plant injury at 500 g/ha [12, 16] was 70% and the pest or weed control at 125 g/ha [13, 15] was 30%. It also gave a pest or weed control at 500 g/ha [13, 16] of 50%, a pest or weed control at 125 g/ha [14, 15] of 40% and a pest or weed control at 500 g/ha [14, 16] of 50%.
In the case of `CN1C[C@H](c2ccc(F)c(F)c2)[C@@H](C(=O)Nc2cccc(F)c2F)C1=O` [Compound 639, (3S,4S)—N-(2,3-difluorophenyl)-4-(3,4-difluorophenyl)-1-methyl-2-oxo-3-pyrrolidinecarboxamide], the pest or weed control at 125 g/ha (Kochia (Kochia scoparia) [1]) is reported as 70%, the pest or weed control at 500 g/ha (Kochia (Kochia scoparia) [1]) is reported as 80% and the pest or weed control at 125 g/ha [2] is reported as 90%. For the same compound, the pest or weed control at 500 g/ha [2] was 100%, the pest or weed control at 125 g/ha [3] was 90% and the pest or weed control at 500 g/ha [3] was 90%. For the same compound, the pest or weed control at 125 g/ha [4] was 50%, the pest or weed control at 500 g/ha [4] was 70% and the pest or weed control at 125 g/ha [5] was 60%. For the same compound, the pest or weed control at 500 g/ha [5] was 90%, the pest or weed control at 125 g/ha [6] was 50% and the pest or weed control at 500 g/ha [6] was 80%. It also gave a pest or weed control at 125 g/ha (Kochia (Kochia scoparia) [7]; [15]) of 60%, a pest or weed control at 500 g/ha (Kochia (Kochia scoparia) [7]; [17]) of 70% and a pest or weed control at 125 g/ha [8, 15] of 40%. For the same compound, the pest or weed control at 500 g/ha [8, 17] was 50%, the Corn plant response rating (crop injury, 0 = no effect, 100 = complete kill) at 125 g/ha (corn (Zea mays)) was 40% and the Corn plant response rating (crop injury, 0 = no effect, 100 = complete kill) at 500 g/ha (corn (Zea mays)) was 80%. The pest or weed control at 125 g/ha [9, 15] was 90%, the pest or weed control at 500 g/ha [9, 17] was 90% and the pest or weed control at 125 g/ha [10] was 90%. The pest or weed control at 500 g/ha [10] was 90%, the pest or weed control at 125 g/ha [11] was 60% and the pest or weed control at 500 g/ha [11] was 60%. For the same compound, the plant injury at 125 g/ha [12, 15] was 60%, the plant injury at 500 g/ha [12, 17] was 60% and the pest or weed control at 125 g/ha [13, 15] was 30%. It also gave a pest or weed control at 500 g/ha [13, 17] of 50%, a pest or weed control at 125 g/ha [14, 15] of 20% and a pest or weed control at 500 g/ha [14, 17] of 50%.
